Measured values from US9273095B2, “Antibiotic peptide and preparation method therefor and application therefor” (priority 2011, dated 2016).
≈ marks a conversion by molar mass, not a printed value. Marks after values point to notes of the source that are not given here. Non-standard residues stand in square brackets, D forms with d. Residues, ends and D or L forms follow the SMILES beside them.

Columns and labels:
Bacillus dysenteriae = experiment: Therapeutic test of oral preparation on mice with systemic infection, survival time; type: in vivo, ICR mice; conditions: 80 mg/kg gavage three times a day for seven days, n = 10
Procedure: (§1) There are 30 male and 30 female ICR mice with the weight ranging from 18 g to 22 g. […] With trinitrophenal marking method, all the mice are raised with ordinary animal feeds in the ordinary animal houses and they can drink water freely. Alternating of light and dark is conducted every 12 hours.
(§2) 2. Infected Strains: Escherichia and Bacillus dysenteriae
(§3) (1) The preparation of bacterial suspension is the same as above.
(§4) (2) The Escherichia suspension cultured overnight is diluted to 1×10^7CFU/ml. The Bacillus dysenteriae suspension cultured overnight is diluted to 1×10^5CFU/ml. They are all applied in reserve.
(§5) (3) Except the blank control group, every other mouse is injected with 0.2 ml Escherichia suspension with the concentration of 1×10^7CFU/ml or 0.2 ml Bacillus dysenteriae suspension with the concentration of 1×10^5CFU/ml intraperitoneally to make model.
(§6) (4) Administration: The drugs are administered according to mice′ weight right after the model is ready. All the groups excepting the blank and the infected negative control groups are administered by gavaging with different dosage of drugs three times a day successively for seven days, and they are observed for fourteen days.
(§7) (5) Observe death of the animals and record their survival time.

Escherichia = experiment: as above; type: in vivo, ICR mice; conditions: 80 mg/kg gavage three times a day for seven days, n = 10
Procedure: as §1, §2, §3, §4, §5, §6, §7

[1] = test system: Acinetobacter calcoaceticus; experiment: microbe, parasite or virus in culture; type: cell-based
Procedure: (§8) The experimental strains are 37 standard strains preserved in lab and clinical isolated bacteria, including drug-resistant bacteria and quality-control bacteria selecting Staphylococcus aureus ATCC29213, Enterococcus faecalis ATCC29212, Escherichia coli ATCC25922, Pseudomonas aeruginosa ATCC27853 and klebsiella pneumoniae ATCC700603.
(§9) (1) Sensitivity test is conducted with two-fold agar dilution method and Denlay multipoint inoculator. Test bacteria are cultured with nutrient broth and brain heart infusion.
(§10) (2) The drug is double diluted into different concentration with MH broth after dissolved and then placed in the plate respectively.
(§11) (3) After dissolved, MH agar culture medium are injected into the plate with drug quantitatively and mixed to make the final concentration of drug are 0.03, 0.06, 0.125, . . . , 128 μg/ml respectively.
(§12) (4) After solidification of the culture medium in the plate, test bacteria (10^4CFU/point) are inoculated by multipoint inoculator and cultured for 18 hours at constant 35° C. Then observe the results.

[2] = test system: Staphylococcus epidermidis; experiment: microbe, parasite or virus in culture; type: cell-based
Procedure: as §8, §9, §10, §11, §12

Enterococcus faecium = experiment: microbe, parasite or virus in culture; type: cell-based
Procedure: as §8, §9, §10, §12

[3] = test system: red cell suspension from healthy volunteers; experiment: Hemolytic activity test; type: cell-based, human; conditions: for Hemolytic activity, absorbancy (OD value) at 570 nm: 4 hours at 37° C., OD higher than 0.1 is hemolytic, n = 3
Procedure: (1) Samples are serial diluted with sterile PBS to 1000, 500, 250, 125, 64, 32, 16, 8, 4 μg/ml in turn and spread in 96-well plates, 100 μl per orifice.
(2) We use distilled water as positive control, sterile PBS as negative control and blank orifice with 200 μl PBS solution added. Each concentration above is made in triplicate.
(3) We take 3 ml whole blood from healthy volunteers and washed it with sterile PBS three times to prepare fresh 2% concentration red cell suspension. Then we added 100 μl red cell suspension into each orifice and made them cultured for 4 hours at 37° C. in the incubator. After centrifuged by plate-swashing centrifuge, the supernatant liquid is collected and measured absorbancy (OD value) at a wavelength of 570 nm. Then we compared the hemolytic efficiency of these concentrations.
(4) According to the documents standard, OD value which is higher than 0.1 is hemolytic concentration.

candida tropicalis = experiment: microbe, parasite or virus in culture; type: cell-based
Procedure: (§13) • (1) Test strains: monilia albicans (candida albicans), candida glabrata, candida krusei, candida tropicalis, aspergillus fumigatus and flavous. Antimicrobial peptides PL-13 (SEQ ID NO: 1) under test are supplied by Jiangsu ProteLight Pharmaceutical & Biotechnology Co., LTD. […] Activation of bacterial strains is conducted at a humidity level of 60% and 25° C. (for aspergillus) or 37° C. (for candida). (2) 0.9% stroke-physiological saline solution comprising 0.5% Tween-80 is used to prepare bacterial suspension for experiment. Hemocytometer is utilized to adjust concentration of the bacterial suspension to 1-3×10^6 CFU/ml (0.5 McFarland units) to make stock solution in reserve at -20° C. During the sensitivity test, the RPMI-1640 liquid medium is diluted 1000 times to 1-3×10^3 CFU/ml. (3) The RPMI-1640 liquid is utilized as diluent to 10-fold dilute stock solution of peptides. […] The eleventh orifice is used as living control orifice, while the twelfth one as blank control. (4) The RPMI-1640 liquid is utilized as diluent to 10-fold dilute stock solution of FCZ and ICZ. […] Ditto for other operations.

candida glabrata = experiment: microbe, parasite or virus in culture; type: cell-based
Procedure: as §13

aspergillus fumigatus = experiment: microbe, parasite or virus in culture; type: cell-based
Procedure: as §13

aspergillus flavous = experiment: microbe, parasite or virus in culture; type: cell-based
Procedure: as §13

candida albicans = experiment: microbe, parasite or virus in culture; type: cell-based
Procedure: as §13

candida krusei = experiment: microbe, parasite or virus in culture; type: cell-based
Description: • (1) Test strains: monilia albicans (candida albicans), candida glabrata, candida krusei, candida tropicalis, aspergillus fumigatus and flavous. (2) Quality control strains: candida krusei JLC30366 (ATCC6258). Antimicrobial peptides PL-13 (SEQ ID NO: 1) under test are supplied by Jiangsu ProteLight Pharmaceutical & Biotechnology Co., LTD. […] (1) The bacterial strains which preserved on PDA slant are respectively inoculated onto PDA plate and slant medium. Activation of bacterial strains is conducted at a humidity level of 60% and 25° C. (for aspergillus) or 37° C. (for candida). (2) 0.9% stroke-physiological saline solution comprising 0.5% Tween-80 is used to prepare bacterial suspension for experiment. Hemocytometer is utilized to adjust concentration of the bacterial suspension to 1-3×10^6 CFU/ml (0.5 McFarland units) to make stock solution in reserve at -20° C. During the sensitivity test, the RPMI-1640 liquid medium is diluted 1000 times to 1-3×10^3 CFU/ml. (3) The RPMI-1640 liquid is utilized as diluent to 10-fold dilute stock solution of peptides. […] The eleventh orifice is used as living control orifice, while the twelfth one as blank control. (4) The RPMI-1640 liquid is utilized as diluent to 10-fold dilute stock solution of FCZ and ICZ. […] Ditto for other operations.

Structure (SMILES): CCS(=O)(=O)CCn1c([N+](=O)[O-])cnc1C [Tinidazole]
- Mean survival Time (Bacillus dysenteriae; observed fourteen days): 7.0* day
- Mortality of mice in different days after infection (Bacillus dysenteriae; day 4): 2
- Mortality of mice in different days after infection (Bacillus dysenteriae; day 5): 1
- Mortality of mice in different days after infection (Bacillus dysenteriae; day 6): 2
- Mortality of mice in different days after infection (Bacillus dysenteriae; day 7): 2
- Mortality of mice in different days after infection (Bacillus dysenteriae; day 8): 1
- Mortality of mice in different days after infection (Bacillus dysenteriae; day 9): 1
- Mean survival Time (Escherichia; observed fourteen days): 7.5* day
- Mortality of mice in different days after infection (Escherichia; day 4): 1
- Mortality of mice in different days after infection (Escherichia; day 5): 2
- Mortality of mice in different days after infection (Escherichia; day 6): 2
- Mortality of mice in different days after infection (Escherichia; day 7): 1
- Mortality of mice in different days after infection (Escherichia; day 8): 1
- Mortality of mice in different days after infection (Escherichia; day 9): 2

Structure (SMILES): CC(=O)N[C@H](Cc1ccccc1)C(=O)N[C@H](CCCCN)C(=O)N[C@H](CCCCN)C(=O)N[C@H](CC(C)C)C(=O)N[C@H](CCCCN)C(=O)N[C@H](CCCCN)C(=O)N[C@H](CCCCN)C(=O)N[C@H](Cc1ccccc1)C(=O)N[C@H](CO)C(=O)N[C@H](CCCCN)C(=O)N[C@H](CC(C)C)C(=O)N[C@H](Cc1c[nH]c2ccccc12)C(=O)N[C@H](CC(N)=O)C(=O)N[C@H](Cc1c[nH]c2ccccc12)C(=O)N[C@H](CCCCN)C(N)=O [PL-34] (Ac-[dF][dK][dK][dL][dK][dK][dK][dF][dS][dK][dL][dW][dN][dW][dK]-NH2)
- MIC [1]: 1.3 µM (≈ 2.67 µg/mL)
- MIC ([2]; 08-17 (MSSE) Meticillin susceptible staphylococcus epidermidis): 1.3 µM (≈ 2.67 µg/mL)
- MIC ([2]; (MRSE) Methicillin-resistant Staphylococcus epidermidis ATCC12228): 1.3 µM (≈ 2.67 µg/mL)
- MIC (Enterococcus faecium): 1.3 µM (≈ 2.67 µg/mL)
- Hemolytic activity, absorbancy (OD value) at 570 nm ([3]; peptide 7.8125 μg/ml): 0.032
- Hemolytic activity, absorbancy (OD value) at 570 nm ([3]; peptide 15.625 μg/ml): 0.041
- Hemolytic activity, absorbancy (OD value) at 570 nm ([3]; peptide 31.25 μg/ml): 0.054
- Hemolytic activity, absorbancy (OD value) at 570 nm ([3]; peptide 62.5 μg/ml): 0.061
- Hemolytic activity, absorbancy (OD value) at 570 nm ([3]; peptide 125 μg/ml): 0.073
- Hemolytic activity, absorbancy (OD value) at 570 nm ([3]; peptide 250 μg/ml): 0.087
- Hemolytic activity, absorbancy (OD value) at 570 nm ([3]; peptide 500 μg/ml): 0.135
- Hemolytic activity, absorbancy (OD value) at 570 nm ([3]; peptide 1000 μg/ml): 0.317
- hemolytic toxicity (in words) ([3]; summary of Table 9): little hemolytic toxicity
- Minimal inhibitory concentration (candida tropicalis): 4 µg/mL (≈ 1.95 µM)
- Minimal inhibitory concentration (candida glabrata): 32 µg/mL (≈ 15.6 µM)
- Minimal inhibitory concentration (aspergillus fumigatus): >64 µg/mL
- Minimal inhibitory concentration (aspergillus flavous): >64 µg/mL
- Minimal inhibitory concentration (candida albicans): 16 µg/mL (≈ 7.8 µM)
- Minimal inhibitory concentration (candida krusei): 8 µg/mL (≈ 3.9 µM)
